This is an account of results in US5248667A, “Method of treating psoriasis using synthetic peptide compositions” (The United States of America as represented by the …, priority 1991, dated 1993).

The test system of the data set is normal volunteers. The experiment in a line: CNS or immunologic toxicity in volunteers. In kind it is in vivo, human. As to conditions: all patients / normal volunteers. The procedure: 1. 6 male research subjects with histories of substance abuse, childhood dyslexia, and depression, have received Peptide T intravenously in doses ranging from 0.033 mg/kg to 0.133 mg/kg per day for seven days.
2. a WM HIV seronegative normal volunteer received Peptide T both intranasally and sublingually at 12.5 mg BID for one week coincidentally reported improvement in multiple red, scaling pruritic areas located in scalp and lower neck areas. This individual has a history of mild psoriasis which, by personal choice, has been treated with only topical treatments including hydrocortisone, coal tar derivatives, and calamine lotion.
3. No evidence of either CNS or immunologic toxicity associated with drug administration was aobserved in any of these patients in any of these normal volunteers.

With `C[C@@H](N)C(=O)N[C@@H](CO)C(=O)N[C@H](C(=O)N[C@H](C(=O)N[C@H](C(=O)N[C@@H](CC(N)=O)C(=O)N[C@@H](Cc1ccc(O)cc1)C(=O)N[C@H](C(N)=O)[C@@H](C)O)[C@@H](C)O)[C@@H](C)O)[C@@H](C)O` [Peptide T, D-Ala-Ser-Thr-Thr-Thr-Asn-Tyr-Thr-amide], the “CNS or immunologic toxicity associated with drug administration” value was “No evidence”.
